Target: T1, Thermotoga maritima TrpB variant TmTrpB^triple (P19G, I69V, T292S), SEQ ID NO: 34 (Thermotoga maritima, UniProt P50909, I69V/P19G/T292S)
T1 sequence (P50909 with tags, fused parts or gaps P19G/I69V/T292S): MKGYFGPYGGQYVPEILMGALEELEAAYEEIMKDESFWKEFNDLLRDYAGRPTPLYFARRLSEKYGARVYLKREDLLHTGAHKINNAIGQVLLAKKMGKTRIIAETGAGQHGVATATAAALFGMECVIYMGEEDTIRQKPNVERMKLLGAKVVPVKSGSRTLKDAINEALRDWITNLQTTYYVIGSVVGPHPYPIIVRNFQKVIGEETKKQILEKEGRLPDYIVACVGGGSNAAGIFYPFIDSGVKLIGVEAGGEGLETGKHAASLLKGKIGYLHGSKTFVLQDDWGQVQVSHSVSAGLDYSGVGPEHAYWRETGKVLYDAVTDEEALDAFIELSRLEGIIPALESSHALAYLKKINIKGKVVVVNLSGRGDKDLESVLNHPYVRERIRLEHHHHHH
Assay: Tryptophan formation from L-serine and indole, kinetics of TmTrpB^triple
Type: biochemical
Description: Kinetics and UV-Vis Spectroscopy. Data were collected between 550 and 250 nm on a UV1800 Shimadzu spectrophotometer (Shimadzu) using 0.25-20 μM of enzyme in 200 mM potassium phosphate (pH 8.0) in a quartz cuvette. Samples were incubated at 75° C. for >3 min to ensure a stable temperature was reached. PfTrpB activity (kcat) was measured by monitoring tryptophan formation at 290 nm using Δe290=1.89 mM^−1·cm^−1.
Cloning, expression, and purification of the different orthologs. The genes encoding AfTrpB (UNIPROT ID O28672), TmTrpB (UNIPROT ID P50909) and EcTrpB (UNIPROT ID P0A879) were obtained from IDT and cloned into pET22(b)+ using Gibson Assembly. Protein expression was carried out in E. coli BL21 E. cloni Express cells (Lucigen) by inoculating 10-mL Terrific Broth (with 100 μg/mL ampicillin (TBamp)) with a single colony and incubated over night at 37° C. and 250 rpm. These overnight cultures were used to scale up to 500-mL TBamp expression cultures, which were grown by shaking at 250 rpm and 37° C. for ˜3 h or until an OD600 of 0.8 was reached. […]
The next homolog, TmTrpB, was examined. […] The variants without the T292S mutation lacked this probative absorbance peak, but the decrease at 428 nm and concomitant increase at 350 nm are consistent with a similar, though less pronounced activation.

Molecule c1ccc2[nH]ccc2c1 [indole] has a kcat (75° C.) of 9.8 s⁻¹ and an increase in kcat (with respect to wild type) of 8 fold.
